Laboratory results taken from US9918958B2, “Treatment for hypoxia” (priority 2011, dated 2018).

What was measured:
[1] = tested on: mice; conditions: simulated altitude of 9,500 meters; cited from earlier work
[2] = human, single doses of 300 mg, 1000 mg, 2000 mg and 4000 mg (n=6 per dose)
Protocol: The study was a double-blind, placebo (n=8) controlled single ascending dose (SAD) trial examining 5-HMF doses of 300 mg, 1000 mg, 2000 mg and 4000 mg (n=6 per dose).

[3] = hypoxic challenge test (12% oxygen, SpO2 by pulse oximeter); format: in vivo, human
Protocol: The hypoxic challenge test was conducted it the following manner: using face masks and air tanks containing 12% oxygen (compared to 21% oxygen in normal air at sea level), subjects inhaled the 12% hypoxic mixture for 5 minutes at a time just prior to starting the dose of study medication (5-HMF or placebo, double-blind) and then again at each of the time intervals 0.75, 2, 4 and 8 hours after the dose. A finger tip oxygen sensing probe connected to a pulse oximeter provided continuous measurement of SpO2 values (percentage of hemoglobin containing at least one oxygen molecule) and the SpO2 values were recorded every 20 seconds during the hypoxic challenge and during a 3-minute recovery period (during which normal air was inspired). The hypoxia challenge was aborted if SpO2 values fell to less than 85%. FIG. 1 illustrates the effect of 5-HMF during a hypoxic challenge. The data compares the fall in mean SpO2 values of placebo and the 2000 mg dose of 5-HMF prior to a hypoxic challenge given at the 2 hour time point post-dose. The mean change in SpO2 levels from start is shown for each one-minute interval of the 5-minute hypoxic challenge. […] It is noteworthy that the difference between placebo and drug becomes greater as the level of hypoxia in the placebo subjects increases. […] Since the level of hypoxic challenge in this initial human study was moderate (no clinical symptoms of hypoxia were present), the impact of 5-HMF should be even greater when the hypoxic challenge is more extreme.
An illustration of the dose-dependent ability of 5-HMF to impact blood oxygenation during a hypoxic challenge is shown in FIG. 2. Because there are appreciable inter-individual differences in the magnitude of the decline of SpO2 in response to a hypoxic challenge, each subject (both placebo and 5-HMF) was tested for the decline in SpO2 at the 5 minute time point for both (i) the challenge given prior to the dose of placebo or 5-HMF and (ii) the challenge given 2 hours after the dose of placebo or 5-HMF. The dotted line in FIG. 2 represents the “baseline” amount of decline occurring during the challenge given prior to dosing placebo or 5-HMF. The results of the decline in SpO2 for each subject at the end the challenge given 2 hours post-dose results were compared to the subject's baseline amount. Thus each subject acted as his/her own control. The blue dots represent individual subject scores and the horizontal black line is the mean SpO2 change relative to the pre-dose hypoxic challenge.

[4] = animals
[5] = tested on: sickle cell disease mouse model; conditions: cited from earlier work

O=Cc1ccc(CO)o1 [5-HMF, 5-hydroxymethyl-2-furfural]
survival under hypobaric hypoxia [1]: increase survival of mice | safety and tolerability [2]: safe and well tolerated | effect on blood oxygen saturation during hypoxia challenge compared to placebo ([3]; 300 mg dose, 2 hours post-dose): small | mean change in ending SpO2 levels relative to the pre-dose hypoxic challenge ([3]; 1000 mg dose, 2 hours post-dose, 5 minute time point of challenge): approximately 2.5 unit | fall in mean SpO2 after one minute of inhalation of hypoxic air ([3]; 2000 mg dose, challenge at 2 hour post-dose, 12% oxygen): 5 units | effect on SpO2 during hypoxic challenge relative to placebo ([3]; 2000 mg dose, challenge at 2 hour post-dose, from one minute on for the remainder of the 5-minute challenge): less severe decrease in SpO2 during the hypoxic challenge | effect on blood oxygen saturation during hypoxia challenge compared to placebo ([3]; all dose levels (300-4000 mg), 2 hours post-dose): increased the blood oxygen saturation of the test subjects compared to placebo at all dose levels | difference from placebo of the most active dose levels ([3]; top three doses (1000, 2000, 4000 mg), p=0.0498): statistically significant | safety window suggested by repeat dose animal toxicology and safety data [4]: wide safety window in humans is likely | P50 of SCD Hb [5]: lower P50 (left shift) | protection against lethal effects of hypoxia [5]: provides in vivo protection against the lethal effects of hypoxia
